Experimental data from ChEMBL document CHEMBL1159313, “Structure and stereochemistry of new cytotoxic clerodane diterpenoids from the bark of Casearia lucida from the Madagascar rainforest” (J Nat Prod, 2002).
In brackets after ≈: the same amount, converted by molar mass.

Tests used:
Type in all cases: functional, cell-based
A2780 = experiment: Cytotoxicity against human A2780 cells after 48 hrs by microplate assay; conditions: A2780, 48 h
[1] = Cytotoxicity against human drug-sensitive […] cells after 48 hrs by microplate assay
[2] = Cytotoxicity against human drug-resistant A2780DDP cells after 48 hrs by microplate assay
SK-BR-3 = experiment: Cytotoxicity against human SKBR3 cells after 48 hrs by microplate assay; conditions: SK-BR-3, 48 h
PC-3 = experiment: Cytotoxicity against human PC3 cells after 48 hrs by microplate assay; conditions: PC-3, 48 h
HCT-116 = experiment: Cytotoxicity against human HCT116 cells after 48 hrs by microplate assay; conditions: HCT-116, 48 h
LX-1 = experiment: Cytotoxicity against human LX1 cells after 48 hrs by microplate assay; conditions: LX-1, 48 h
K562 = experiment: Cytotoxicity against human K562 cells after 48 hrs by microplate assay; conditions: K562, 48 h
ABAE = experiment: Cytotoxicity against ABAE cells after 48 hrs by microplate assay; conditions: Bos taurus
HT-29 = experiment: Cytotoxicity against human HT-29 cells after 48 hrs by microplate assay; conditions: HT-29, 48 h

Row | Structure (SMILES) | IC50 (A2780) | IC50 [1] | IC50 [2] | IC50 (SK-BR-3) | IC50 (PC-3) | IC50 (HCT-116) | IC50 (LX-1) | IC50 (K562) | IC50 (ABAE) | IC50 (HT-29)
1 | C=CC(=C)CC[C@]1(C)[C@H]2C[C@H](OC(=O)C(C)CC)C=C3[C@H](OC(C)=O)O[C@H](OC(C)=O)[C@@]32[C@H](OC)C[C@@H]1C (relative stereo) | 2.9 µg/mL (≈ 5.44 µM) | 1.4 µg/mL (≈ 2.63 µM) | 2.9 µg/mL (≈ 5.44 µM) | 3.5 µg/mL (≈ 6.57 µM) | 3 µg/mL (≈ 5.63 µM) | 1 µg/mL (≈ 1.88 µM) | 1.2 µg/mL (≈ 2.25 µM) | 1.4 µg/mL (≈ 2.63 µM) | 0.8 µg/mL (≈ 1.5 µM) | 1.3 µg/mL (≈ 2.44 µM)
2 | C=CC(=C)CC[C@]1(C)[C@H]2C[C@H](OC(=O)C(C)CC)C=C3[C@H](OC(C)=O)O[C@H](OC(C)=O)[C@@]32[C@H](O)C[C@@H]1C (relative stereo) | 2.9 µg/mL (≈ 5.59 µM) | 1.2 µg/mL (≈ 2.31 µM) | 2.1 µg/mL (≈ 4.05 µM) | 1.4 µg/mL (≈ 2.7 µM) | 2.8 µg/mL (≈ 5.4 µM) | 1.6 µg/mL (≈ 3.08 µM) | 1.1 µg/mL (≈ 2.12 µM) | 1.4 µg/mL (≈ 2.7 µM) | 0.8 µg/mL (≈ 1.54 µM) | 1 µg/mL (≈ 1.93 µM)
3 | C=C/C(C)=C/C[C@]1(C)[C@H]2C[C@H](OC(=O)C(C)CC)C=C3[C@H](OC(C)=O)O[C@H](OC(C)=O)[C@@]32[C@H](O)C[C@@H]1C (relative stereo) [CASEARLUCIN A] | 3 µg/mL (≈ 5.78 µM) | 1 µg/mL (≈ 1.93 µM) | 2.8 µg/mL (≈ 5.4 µM) | 1.2 µg/mL (≈ 2.31 µM) | 2.5 µg/mL (≈ 4.82 µM) | 1.3 µg/mL (≈ 2.51 µM) | 1 µg/mL (≈ 1.93 µM) | 1.1 µg/mL (≈ 2.12 µM) | 0.8 µg/mL (≈ 1.54 µM) | 0.8 µg/mL (≈ 1.54 µM)
4 | C=C/C(C)=C/C[C@]1(C)[C@H]2C[C@H](OC(=O)C(C)CC)C=C3[C@H](OC(C)=O)O[C@H](OC(C)=O)[C@@]32[C@H](OC(C)=O)C[C@@H]1C (relative stereo) [CASEARLUCIN C] | 2.8 µg/mL (≈ 4.99 µM) | 7.7 µg/mL (≈ 13.7 µM) | 9.6 µg/mL (≈ 17.1 µM) | 14 µg/mL (≈ 25 µM) | 15 µg/mL (≈ 26.8 µM) | 4.5 µg/mL (≈ 8.03 µM) | 5 µg/mL (≈ 8.92 µM) | 3.8 µg/mL (≈ 6.78 µM) | 3.6 µg/mL (≈ 6.42 µM) | 12 µg/mL (≈ 21.4 µM)
5 | C=CC(=C)CC[C@]1(C)[C@H]2C[C@H](OC(=O)C(C)CC)C=C3[C@H](OC(C)=O)O[C@H](OC(C)=O)[C@@]32[C@H](OC(C)=O)C[C@@H]1C (relative stereo) [CASEARLUCIN D] | 2.9 µg/mL (≈ 5.17 µM) | 9.4 µg/mL (≈ 16.8 µM) | 4.6 µg/mL (≈ 8.2 µM) | 10 µg/mL (≈ 17.8 µM) | 13 µg/mL (≈ 23.2 µM) | 4.7 µg/mL (≈ 8.38 µM) | 3.9 µg/mL (≈ 6.96 µM) | 3.9 µg/mL (≈ 6.96 µM) | 4.1 µg/mL (≈ 7.31 µM) | 6.2 µg/mL (≈ 11.1 µM)
6 | C=CC(=C)CC[C@]1(C)[C@H]2C[C@@H](OC(=O)C(C)CC)C=C3[C@H](OC(C)=O)O[C@H](OC(C)=O)[C@@]32[C@H](OC)C[C@@H]1C (relative stereo) [CASEARLUCIN E] | 2.9 µg/mL (≈ 5.44 µM) | 3 µg/mL (≈ 5.63 µM) | 4.1 µg/mL (≈ 7.7 µM) | 3.9 µg/mL (≈ 7.32 µM) | 4.3 µg/mL (≈ 8.07 µM) | 1.8 µg/mL (≈ 3.38 µM) | 1.8 µg/mL (≈ 3.38 µM) | 1.7 µg/mL (≈ 3.19 µM) | 0.9 µg/mL (≈ 1.69 µM) | 2.8 µg/mL (≈ 5.26 µM)
